Results on one molecule are retold here after PMC8886686 (Journal of Inorganic Biochemistry, 2022).

One test has as its target PLpro^C112S (Severe acute respiratory syndrome coronavirus 2, UniProt P0DTD1, C1674S). The format is binding, SARS-CoV-2.
The target in another test is 3CLpro^D155A/C156S (Severe acute respiratory syndrome coronavirus 2, UniProt P0DTD1, C3419S/D3418A). Format: biochemical, SARS-CoV-2. As to conditions: read-out: IC50, 3CLpro^D155A/C156S activity.

On to `O=C([O-])[C@H](O)[C@@H](O)[C@H](O)[C@H](O)CO.O=C([O-])[C@H](O)[C@@H](O)[C@H](O)[C@H](O)CO.[Zn+2]` [Zn^2+, zinc gluconate], for which the “Zn2+ binding capacity of PLpro^C112S (ICP-MS)” value at PLpro^C112S came to 0.71 ± 0.01 eq. Besides, the IC50 at 3CLpro^D155A/C156S is 1.54 ± 0.05 µM.
